Tests used:
[1] = system: pediatric cancer patient having drug-induced myocardial dysfunction caused by an anthracycline anticancer drug; conditions: cited from earlier work
[2] = system: early breast cancer patient treated with an anthracycline anticancer drug; conditions: cited from earlier work
[3] = system: inflammatory cytokine expression in myocardial tissues; assay: Inflammatory cytokine gene expression in myocardial tissue, quantitative real-time RT-PCR; assay type: in vivo, C57BL/6 mice; conditions: 14 days after DOX
Description: (§1) Eight-week-old male C57BL/6 mice were divided into three groups (Control group, DOX group, and DOX+α-GC group). α-GalCer (KRN7000 (Funakoshi Co., Ltd.); 0.1 μg/g weight) was intraperitoneally administered to the DOX+α-GC group, while PBS was intraperitoneally administered to the Control group and the DOX group. Four days after the administration, doxorubicin (Doxorubicin hydrochloride, D1515 (SIGMA-ALDRICH); 20 mg/kg weight) was intraperitoneally administered to the DOX group and the DOX+α-GC group, while Vehicle (PBS) was intraperitoneally administered to the Control group. Three days after the administration of DOX or PBS, α-GalCer (0.1 μg/g weight) was intraperitoneally administered to the DOX+α-GC group, while PBS was intraperitoneally administered to the Control group and the DOX group. Fourteen days after the administration of DOX or PBS, echocardiography was performed for mice of each of the groups to evaluate their cardiac functions, and subsequently, the hearts of the mice were collected to perform pathological evaluation of myocardial tissue fibrosis and evaluation of inflammatory cytokine expression by using a quantitative real-time RT-PCR method. FIG. 1 illustrates the test schedules.
Furthermore, total RNA was extracted from myocardial tissues using QuickGene-810 (FUJIFILM Corporation), and subjected to a reverse transcription reaction using a cDNA reverse transcription kit (Applied Biosystems) to prepare cDNA. Using this cDNA as a template, a quantitative real-time RT-PCR was performed by the TaqMan method to evaluate the expression of inflammatory cytokine. Primer sets and probes used (all of them from Applied Biosystems) were as follows. GAPDH was used as an endogenous control. • IFN-γ: TaqMan Gene Expression Assays, Mm01168134 ml • TNF-α: TaqMan Gene Expression Assays, Mm00443258 ml • IL-1β: TaqMan Gene Expression Assays, Mm00434228 ml • TGF-β1: TaqMan Gene Expression Assays, Mm01178820 ml • IL-4: TaqMan Gene Expression Assays, Mm00445259 ml • IL-10: TaqMan Gene Expression Assays, Mm01288386 ml • GAPDH: Mouse GAPD (20X), Probe dye VIC-MGB

[4] = system: myocardial dysfunction model mice induced by doxorubicin; assay: Myocardial tissue fibrosis, Picro-sirius Red staining, after α-GalCer; assay type: in vivo, C57BL/6 mice; conditions: α-GalCer 0.1 μg/g i.p. before and after doxorubicin 20 mg/kg; heart collected 14 days after DOX; vs DOX group; FIG. 3
Description: as §1, with “Three days after the administration of DOX or PBS, α-GalCer (0.1 μg/g weight) was intraperitoneally administered to the DOX+α-GC group, while PBS was intraperitoneally administered to the Control group and the DOX group.” left out, “FIG. 1 illustrates the test schedules.” left out
Myocardial tissue fibrosis was evaluated by fixing a frozen section sample of myocardial tissue with 10% formalin and then staining the sample with 3% Picro-sirius Red (100 ml of Van Gieson Solution P (FUJIFILM Wako Pure Chemical Corporation)+3 ml of 1% Sirius Red (MUTO PURE CHEMICALS CO., LTD.)) to detect collagen. […]

[5] = system: myocardial dysfunction model mice induced by doxorubicin; assay: Echocardiography (left ventricular fractional shortening) after α-GalCer in doxorubicin myocardial dysfunction model; assay type: in vivo, C57BL/6 mice; conditions: α-GalCer 0.1 μg/g i.p. 4 days before and 3 days after doxorubicin 20 mg/kg i.p.; echocardiography 14 days after DOX; vs DOX group; FIG. 2
Description: as §1
The echocardiography was carried out by using an ultrasound recording device EUB-8000 (Hitachi, Ltd.) under anesthesia with pentobarbital. […]

[6] = system: activated, M1 and M2 macrophage markers in myocardial tissues; assay: Macrophage marker gene expression in myocardial tissue, quantitative real-time RT-PCR; assay type: in vivo, C57BL/6 mice; conditions: 14 days after DOX, FIG. 6
Description: Eight-week-old male C57BL/6 mice were divided into three groups (Control group, DOX group, and DOX+α-GC group). α-GalCer (KRN7000 (Funakoshi Co., Ltd.); 0.1 μg/g weight) was intraperitoneally administered to the DOX+α-GC group, while PBS was intraperitoneally administered to the Control group and the DOX group. Four days after the administration, doxorubicin (Doxorubicin hydrochloride, D1515 (SIGMA-ALDRICH); 20 mg/kg weight) was intraperitoneally administered to the DOX group and the DOX+α-GC group, while Vehicle (PBS) was intraperitoneally administered to the Control group. Three days after the administration of DOX or PBS, α-GalCer (0.1 μg/g weight) was intraperitoneally administered to the DOX+α-GC group, while PBS was intraperitoneally administered to the Control group and the DOX group. Fourteen days after the administration of DOX or PBS, echocardiography was performed for mice of each of the groups to evaluate their cardiac functions, and subsequently, the hearts of the mice were collected to perform pathological evaluation of myocardial tissue fibrosis and evaluation of inflammatory cytokine expression by using a quantitative real-time RT-PCR method. FIG. 1 illustrates the test schedules. Furthermore, using the above-mentioned cDNA as a template, a quantitative real-time RT-PCR was performed by the TaqMan method using the following primer sets and probes (all of them from Applied Biosystems) to evaluate the expression of CD11c and MHC II (activated macrophage markers), MCP-1, iNOS, and IL-1β (M1 macrophage markers), and […] and Arginase 1 (Arg1) (M2 macrophage markers). GAPDH was used as an endogenous control. • CD11c: TaqMan Gene Expression Assays, Mm00498701 ml • MHC II (H2-A1): TaqMan Gene Expression Assays, Mm00439211 ml • MCP1 (CCL2): TaqMan Gene Expression Assays, Mm00441242 ml • iNOS (NOS2): TaqMan Gene Expression Assays, Mm00440502 ml • IL-1β: TaqMan Gene Expression Assays, Mm00434228 ml • […]: TaqMan Gene Expression Assays, Mm00445109 ml • Arg1: TaqMan Gene Expression Assays, Mm00475988 ml • GAPDH: Mouse GAPD (20X), Probe dye VIC-MGB

[7] = system: post-myocardial infarction heart failure; conditions: ischemic heart failure; earlier work of the inventors; cited from earlier work
[8] = comparison between the three groups

CCOC(=O)[C@H](CCc1ccccc1)N[C@@H](C)C(=O)N1CCC[C@H]1C(=O)O [enalapril]
left ventricular end-systolic wall stress [1]: reduced a left ventricular end-systolic wall stress | other important parameters reflecting a motor ability and the like [1]: failed to improve other important parameters reflecting a motor ability and the like

COCCc1ccc(OCC(O)CNC(C)C)cc1 (stereo not shown) [metoprolol]
decrease in left ventricular ejection fraction [2]: did not prevent the decrease in left ventricular ejection fraction

CCCCCCCCCCCCCCCCCCCCCCCCCC(=O)N[C@@H](CO[C@H]1O[C@H](CO)[C@H](O)[C@H](O)[C@H]1O)[C@H](O)[C@H](O)CCCCCCCCCCCCCC [α-GalCer, α-galactosylceramide]
expression of IFN-γ in myocardial tissue ([3]; DOX+α-GC group vs Control and DOX groups, FIG. 5): tended to be more enhanced in the DOX+α-GC group than in other groups | expression of interleukin-4 (IL-4) in myocardial tissue ([3]; DOX+α-GC group vs Control and DOX groups, GAPDH endogenous control, FIG. 4, FIG. 5): tended to be more enhanced in the DOX+α-GC group than in other groups | expression of other cytokines such as IL-10 in myocardial tissue ([3]; comparison between Control, DOX and DOX+α-GC groups, FIG. 5): any significant difference in the expression of other cytokines such as IL-10 between the three groups was not observed | myocardial tissue fibrosis (ratio of stained area) [4]: the progression as observed in the DOX group was significantly suppressed | cardiac function, left ventricular fractional shortening (% FS) [5]: did not show the decrease in cardiac function as observed in the DOX group | expression of Arg1 (M2 macrophage marker) in myocardial tissue ([6]; DOX+α-GC group vs other groups): more enhanced in the DOX+α-GC group than in other groups | expression of CD11c (activated macrophage marker) in myocardial tissue ([6]; DOX+α-GC group vs other groups): more enhanced in the DOX+α-GC group than in other groups | expression of MHC II (activated macrophage marker) in myocardial tissue ([6]; DOX+α-GC group vs other groups): more enhanced in the DOX+α-GC group than in other groups | expression of Retnla (M2 macrophage marker) in myocardial tissue ([6]; DOX+α-GC group vs other groups): more enhanced in the DOX+α-GC group than in other groups | expression of IL-1β (M1 macrophage marker) in myocardial tissue [6, 8]: any significant difference in the expression of MCP-1, iNOS, and IL-1β as M1 macrophage markers between the three groups was not observed | expression of MCP-1 (M1 macrophage marker) in myocardial tissue [6, 8]: any significant difference in the expression of MCP-1, iNOS, and IL-1β as M1 macrophage markers between the three groups was not observed | expression of iNOS (M1 macrophage marker) in myocardial tissue [6, 8]: any significant difference in the expression of MCP-1, iNOS, and IL-1β as M1 macrophage markers between the three groups was not observed | therapeutic effect on post-myocardial infarction heart failure [7]: confirmed therapeutic effects

— patent US20220160659A1, “PHARMACEUTICAL COMPOSITION COMPRISING a-GALACTOSYLCERAMIDE AND/OR DENDRITIC CELLS PULSED WITH a-GALACTOSYLCERAMIDE” (National University Corporation Hokkaido University, priority 2019, published 2022)
